Measured values: patent US6849761B2, “Substituted naphthoic acid derivatives useful in the treatment of insulin resistance and hyperglycemia” (Wyeth, priority 2002, dated 2005)
Where a name gives a salt, the structure may show the parent alone.

Key:
[1] = target: T1, human-derived recombinant PTPase-1B (hPTP-1B) (Homo sapiens, UniProt P18031); assay: PTP-1B inhibition assay (DIFMUP fluorescence kinetic assay); format: biochemical; conditions: inhibitor at 40 μM; 20 μM DIFMUP; 1 nM enzyme; calculated from average velocity Va vs control
T1 sequence (P18031 1-435): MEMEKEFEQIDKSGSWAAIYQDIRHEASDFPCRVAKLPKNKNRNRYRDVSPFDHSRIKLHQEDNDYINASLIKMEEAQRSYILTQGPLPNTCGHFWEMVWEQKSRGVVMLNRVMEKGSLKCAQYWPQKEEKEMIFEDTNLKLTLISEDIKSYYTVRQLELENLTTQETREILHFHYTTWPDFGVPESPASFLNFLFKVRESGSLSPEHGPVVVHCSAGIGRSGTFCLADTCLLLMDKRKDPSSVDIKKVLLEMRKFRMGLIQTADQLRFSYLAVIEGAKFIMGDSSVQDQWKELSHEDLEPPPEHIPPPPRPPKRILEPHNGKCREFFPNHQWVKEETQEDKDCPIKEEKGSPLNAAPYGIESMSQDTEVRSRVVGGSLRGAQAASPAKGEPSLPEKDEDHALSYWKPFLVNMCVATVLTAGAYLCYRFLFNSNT
Description: Measurement of PTPase activity: Compounds are assayed in an enzyme activity-based assay. PTP-1B is known to dephosphorylate phosphopeptides. This assay is a fluorescence intensity based kinetic assay, taking advantage of a non-peptidyl substrate, 6,8-difluoro-4-methylumbelliferyl phosphate (DIFMUP). When excited at 358 nm, the dephosphorylated product of DIFMUP emits at 450 nm.
Examples 1-5 (set forth below) were analyzed as follows. The assay was conducted in black 384-well non-treated plates (Costar#3710). The assay buffer contained 50 mM 3,3-dimethyl glutaric acid, pH 7.0, 48 mM NaCl, 1 mM EDTA. Inhibitors were prepared as DMSO solution and diluted to desired concentrations using 50 mM HEPES, pH 7.4. PTP-1B was diluted to a 2.5 nM working stock using the assay buffer containing additional 0.001% (w/v) hydrogenated Triton X-100. DIFMUP was diluted to 40 μM using the assay buffer. 5 μl of inhibitor was first dispensed into assay plate. In cases of control reactions, 5 μl of the assay buffer was dispensed. This was followed by 25 μl of DIFMUP working stock. The reaction was then initiated by the addition of 20 μl of PTP-1B working stock. The final DIFMUP concentration was 20 μM (˜1.6×Km). The final enzyme concentration was 1 nM and the detergent concentration was 0.0004% (w/v). Typical inhibitor concentrations were from 0.08 to 40 μM. The reaction progress was monitored continuously for 30 min.
Calculations: For data analysis, the last five data points were used to obtain a slope corresponding to the estimated steady-state velocity (Vs), and the overall progress curves were used to obtain the average velocity (Va), by linear regression in both cases. The apparent final potency of inhibitor (Kiapp) was then calculated from Vs data, using the standard hyperbolic inhibition equation. The IC50 values were calculated from Va data using the sigmoidal inhibition equation. % inhibition values were calculated from Va values of inhibitor at 40 μM, and the average Va value of control reactions.

Row | Compound | melting point | inhibition at 40 µM [1] [%]
1 | COc1ccc2cc(C(=O)O)ccc2c1CNCc1ccc(OC(F)(F)F)cc1 (as salt: salt) [Example 1, 6-Methoxy-5-({[4-(trifluoromethoxy)benzyl]amino}methyl)-2-naphthoic acid] | 235 to 237 °C | –
2 | COc1ccc2cc(C(=O)O)ccc2c1CNCc1ccc(F)cc1 (as salt: salt) [Example 2, 5-{[(4-Fluorobenzyl)amino]methyl)-6-methoxy-2-naphthoic acid] | 268 to 270 °C (dec.) | –
3 | COc1ccc2cc(C(=O)O)ccc2c1CNCc1ccc(S(N)(=O)=O)cc1 (as salt: salt) [Example 3, 5-({[4-(Aminosulfonyl)benzyl]amino}methyl)-6-methoxy-2-naphthoic acid] | 283 to 285 °C (dec.) | –
4 | COc1ccc2cc(C(=O)O)ccc2c1CNCc1ccc(OC(F)(F)F)cc1 [Example 1, 6-Methoxy-5-({[4-(trifluoromethoxy)benzyl]amino}methyl)-2-naphthoic acid] | – | 50
5 | COc1ccc2cc(C(=O)O)ccc2c1CNCc1ccc(F)cc1 [Example 2, 5-{[(4-Fluorobenzyl)amino]methyl)-6-methoxy-2-naphthoic acid] | – | 37

Results, then the molecule that gave them:

Row | melting point | inhibition at 40 µM [1] [%] | Compound
6 | > 215 °C (dec.) | – | COc1ccc2cc(C(=O)O)ccc2c1CNCc1ccc(N(C)C)cc1 (as salt: salt) [Example 4, 5-({[4-(Dimethylamino)benzyl]amino}methyl)-6-methoxy-2-naphthoic acid]
7 | – | 23 | COc1ccc2cc(C(=O)O)ccc2c1CNCc1ccc(S(N)(=O)=O)cc1 [Example 3, 5-({[4-(Aminosulfonyl)benzyl]amino}methyl)-6-methoxy-2-naphthoic acid]
8 | – | 34 | COc1ccc2cc(C(=O)O)ccc2c1CNCc1ccc(N(C)C)cc1 [Example 4, 5-({[4-(Dimethylamino)benzyl]amino}methyl)-6-methoxy-2-naphthoic acid]
9 | > 266 °C (dec.) | 38 | O=C(O)COc1ccc2cc(C(=O)O)ccc2c1CNCc1ccc(OC(F)(F)F)cc1 [Example 5, 6-(Carboxymethoxy)-5-({[4-(trifluoromethoxy)benzyl]amino}methyl)-2-naphthoic acid]
